# Data as given in US20030206936A1, “Cosmetic composition and method of treating skin and hair” (Unilever Home & Personal Care USA, Division of Conopco, Inc., priority 2002, published 2003).
# Tests used:
# Type in all cases: cell-based
# decorin = assay: Dot blot assay for decorin synthesis in human dermal fibroblasts; settings: primary human foreskin fibroblasts, 24 hours, relative to vehicle control; effect similar to retinoic acid
# Description: Procedure For Measuring Procollagen-I and Decorin Synthesis in Human Dermal Fibroblasts
# Preparation of Dermal Fibroblast Conditioned Medium
# Primary human foreskin fibroblasts at passage 2 (P2) were seeded into 12-well plates at 10000 cells/cm^2 and maintained for 24 hours in an atmosphere of 5% carbon dioxide and 4% oxygen in Dulbeccos Modified Eagles Medium (DMEM) supplemented with 10% foetal calf serum. After this time the cells were washed with serum free DMEM and then incubated in fresh serum free DMEM for a further 60 hours. The fibroblast monolayers were then washed again with serum free DMEM. […] This fibroblast conditioned medium was either analyzed immediately or snap frozen in liquid nitrogen and stored at −70° C. for future analysis. The cells were then counted and data from the dot-blot analysis subsequently standardized to cell number. […]
# Following this the Immobilon strips were again washed with TBS/Tween 20 (3×5 minutes) before being allowed to dry in air at room temperature. […] Dot intensity was assessed by computer-assisted image TM analysis using the quantification tools in ImageQuant™, standardized to cell number and the effects of various test reagents on decorin and procollagen-I synthesis were determined relative to a vehicle treated control value of 100 arbitrary units.
# [1] = tested on: Corynebacterium A NCIMB 40928; assay: In vitro model of fatty acid catabolism by corynebacteria A (TVC, glucose and pentadecanoic acid utilisation); settings: 24 h
# Description: An in vitro model system, reproducing fatty acid catabolism by corynebacteria A, consisted of 250 ml baffled shake flasks, to which were added 30 ml semi-synthetic medium (see below) supplemented with fatty acid substrate (2.0 mg/ml pentadecanoic acid) and non-fatty acid substrate (0.5 mg/ml glucose). This system was employed to evaluate sargahydroquinoic acid as a potential deodorant active: to each flask (other than the control) was added and specific dose of sargahydroquinoic acid (isolated from Kombo nut oil at >90% purity), from a 25 g/l stock emulsion in semi-synthetic medium supplemented with 5.0 mg/ml Gum Arabic (formed by ultra-homogenisation at 24000 rpm for 1 min) Flasks were inoculated with fresh bacterial biomass (Corynebacterium A NCIMB 40928), pre-grown for 24 h in TSBT (see below), to give starting optical densities (A5 9 0) of ˜1.0. Following inoculation, flasks were incubated aerobically at 35°0 C., with agitation (130 rpm), and analysed at 24 h. Culture viability was determined by total viable count (TVC) analysis on TSAT plates (see below) following serial dilution in quarter-strength Ringers solution. Fatty acid concentrations were determined by capillary gas chromatography (GC) (see below), while residual glucose levels were measured with blood glucose test strips (BM-Test 1-44; Boehringer Mannheim) used in conjunction with a ReflofluxS glucose meter (Boehringer Mannheim). A ‘sub-lethal’ effect is defined as significant inhibition of fatty acid catabolism, typically greater than 50% inhibition of pentadecanoic acid utilization, without concomitant reductions in Corynebacterium A viability (≦1 log10 CFU/ml reduction) or glucose utilization (≦10% reduction). Outside one or both of these defined boundaries, the effect may be described as ‘antimicrobial’, where ‘antimicrobial’ includes both bacteriostatic & bactericidal effects. Composition of Tween-supplemented Tryptone soya broth & agar (TSBT & TSAT) used for growth & maintenance of axillary bacterial (g/l): Tryptone soya broth (30.0); Yeast Extract (Beta Lab) (10.0); Tween 80™ (1.0); ± Agar (20.0). Composition of semi-synthetic medium used in in vitro system simulating fatty acid catabolism by corynebacteria A (g/l): KH2PO, (1.6);(NH4) 2HPO4(5.0); Na2SO4 (0.38); Yeast Nitrogen Base (Difco)(3.35); Yeast Extract (Beta Lab)(0.5); Tween 80™ (0.2); Triton X-100™ (0.2); MgCl2.6H20(0.5). Fatty acid levels in the flasks were determined by capillary GC analysis. Initially, 5.0 ml aliquots from each flask were transferred into universal tubes; an internal standard (lauric acid, 1.0 mg/ml final concentration) was added to each tube and the culture medium acidified (pH ˜2) by the addition of hydrochloric acid. Liquid-liquid extraction was then carried out using 2 vol (10 ml) ethyl acetate; organic and aqueous phases were resolved by centrifugation (2000 rpm, 3 min). ˜0.75 ml of each organic (upper) phase was then transferred to a sampling vial prior to analysis on a Perkin Elmer 8000 (Series 2) GC fitted with a 15 m ×0.32 mm (internal diameter) FFAP (nitroterephalic acid modified PEG/siloxane copolymer) fused silica capillary column (film thickness […]) (Quadrex). This column was attached to the split-splitless injector and flame ionisation detector (FID) of the GC; injector and detector temperatures were each 300° C. Carrier gas for the column was helium (6 psi), while hydrogen (17 psi) and air (23 psi) supplied the FID. The temperature programme for fatty acid analysis was 80° C.(2 min); 80-250° C. (20° C./min); 250° C. (5 min). Sample size for injection was 0.5-1.0 μl . Fatty acid levels in the flasks were quantified by comparison of peak areas with known levels of both internal (lauric acid) and externally-run (pentadecanoic acid) standards.
# PPARα = molecular target: T1, PPARα (Homo sapiens, UniProt Q07869); assay: Reporter gene assay (PPARα) in transfected Cos-7 cells; settings: 10 μM, 24 hours
# T1 construct: expressed in transfected cells; host or cells: Cos-7 cells (ECACC No. 87021302), transient transfection with LipofectAMINE
# T1 sequence (Q07869 1-468): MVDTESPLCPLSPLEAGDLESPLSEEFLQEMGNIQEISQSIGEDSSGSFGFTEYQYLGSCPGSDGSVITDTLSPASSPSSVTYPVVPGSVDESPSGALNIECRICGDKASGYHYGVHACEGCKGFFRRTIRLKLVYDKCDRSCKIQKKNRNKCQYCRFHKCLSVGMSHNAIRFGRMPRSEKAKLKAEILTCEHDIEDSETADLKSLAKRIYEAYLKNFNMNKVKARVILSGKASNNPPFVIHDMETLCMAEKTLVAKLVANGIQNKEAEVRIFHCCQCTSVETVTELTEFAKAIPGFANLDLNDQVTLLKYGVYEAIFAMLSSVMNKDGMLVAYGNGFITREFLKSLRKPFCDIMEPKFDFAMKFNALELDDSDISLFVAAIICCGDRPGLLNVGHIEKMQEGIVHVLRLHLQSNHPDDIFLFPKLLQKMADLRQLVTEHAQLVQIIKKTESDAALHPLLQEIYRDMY
# Description: The following assay protocol is responsive to ligands of PPARα or retinoid X receptor.
# Reporter Gene Assay Protocol
# Cos-7 cells (ECACC No. 87021302) were routinely grown in DMEM with 10% FCS (foetal calf serum) at 37° C., 5% CO2 to 80% confluency. Transient transfections were performed as described by the manufacturers (GibcoBRL). Briefly, cells were plated out in 24 well plates at 50,000 cells per well and incubated overnight in DMEM with 10% FCS at 37° C., 5% CO2,. Cells were then transfected using the LipofectAMINE reagent. For each well, 0.5 μg of DNA mix (for “control” cells pPPRE3TK-luc 0.40 μg; pRL-TK 0.04 μg; pcDNA3.1(−) 0.03 μg; pRSV 0.03 μg; for “plus RXRα” cells pPPRE3TK-luc 0.40 μg; pRL-TK 0.04 μg; pcDNA3.1(−) 0.03 μg; pRSV/RXRα 0.03 μg; for “plus PPARα” cells pPPRE3TK-luc0.40 μg; pRL-TK 0.04 μg pcDNA3.1(−)/PPARα 0.03 μg pRSV 0.03 μg) in 25 μl of DMEM was incubated with 1 μl LipofectAMINE, also in 25 μl of DMEM for 45 minutes.
# The mixture was then made up to 250 μl per well and added to the cells, which had been washed with 1 ml of DMEM. Cells were then incubated for 5 hours at 37° C., 5% CO2, and 250 μl DMEM with 20% SBCS (charcoal stripped bovine calf serum (Sigma)) added. Cells were allowed to recover for 18 hours at 37° C., 5% CO2 before being treated. […]
smiles,measurement,setting,value
CC(C)=CCC/C(=C/CC/C(C)=C/CC/C(C)=C/Cc1cc(O)cc(C)c1O)C(=O)O [Sargahydroquinoic acid],effect on decorin production (FIG. 1),decorin,enhances decorin production
same,Glucose Utilisation,[1]; 0.05 g/l,100%
same,Pentadecanoic Acid Utilisation,[1]; 0.05 g/l,99%
same,TVC,[1]; 0.05 g/l,8.67 log10 CFU/ml
same,Glucose Utilisation,"[1]; 0.1 g/l, * sub-lethal",100* %
same,Pentadecanoic Acid Utilisation,"[1]; 0.1 g/l, * sub-lethal",58* %
same,TVC,"[1]; 0.1 g/l, * sub-lethal",8.83* log10 CFU/ml
same,Glucose Utilisation,"[1]; 0.25 g/l, * sub-lethal",>90* %
same,Pentadecanoic Acid Utilisation,"[1]; 0.25 g/l, * sub-lethal",15* %
same,TVC,"[1]; 0.25 g/l, * sub-lethal",7.93* log10 CFU/ml
same,Glucose Utilisation,"[1]; 0.5 g/l, * sub-lethal",100* %
same,Pentadecanoic Acid Utilisation,"[1]; 0.5 g/l, * sub-lethal",19* %
same,TVC,"[1]; 0.5 g/l, * sub-lethal",7.85* log10 CFU/ml
same,Glucose Utilisation,"[1]; 1.0 g/l, antimicrobial effect",>90%
same,Pentadecanoic Acid Utilisation,"[1]; 1.0 g/l, antimicrobial effect",5%
same,TVC,"[1]; 1.0 g/l, antimicrobial effect",7.3 log10 CFU/ml
same,Glucose Utilisation,"[1]; 2.5 g/l, antimicrobial effect",7%
same,Pentadecanoic Acid Utilisation,"[1]; 2.5 g/l, antimicrobial effect",25%
same,TVC,"[1]; 2.5 g/l, antimicrobial effect",<3.0 log10 CFU/ml
same,inhibition at 50 µg/mL,"[1]; Corynebacterium, NCIMB40928, 0.05 g/l, in parentheses = not significant",1%
same,inhibition at 100 µg/mL,"[1]; Corynebacterium, NCIMB40928, 0.1 g/l, * sub-lethal",42%
same,inhibition at 250 µg/mL,"[1]; Corynebacterium, NCIMB40928, 0.25 g/l, * sub-lethal",85%
same,inhibition at 500 µg/mL,"[1]; Corynebacterium, NCIMB40928, 0.5 g/l, * sub-lethal",81%
same,inhibition at 1000 µg/mL,"[1]; Corynebacterium, NCIMB40928, 1.0 g/l, antimicrobial effect",95%
same,inhibition at 2500 µg/mL,"[1]; Corynebacterium, NCIMB40928, 2.5 g/l, antimicrobial effect",75%
same,PPARα ligand activity in reporter gene assay (FIG. 2),PPARα,is a ligand for PPARα
